From PMC8989888, “Development of optimized drug-like small molecule inhibitors of the SARS-CoV-2 3CL protease for treatment of COVID-19” (Nature Communications, 2022)
Like-named read-outs stand apart in the source and are kept apart here.

Target: SARS-CoV-2 3CL protease (Severe acute respiratory syndrome coronavirus 2, UniProt P0DTD1)
Assay type: biochemical
Parameters: Avg: unit not given here
Details: for Inhibition at 10 µM: 10 µM compound; for Inhibition at 100 µM: 100 µM compound; for IC50 / LogIC50: Figure S1 and S2
[1] = Conc 10 µM, mean response (inhibition) of dose-response curve
[2] = Conc 15 µM, mean response (inhibition) of dose-response curve
[3] = Conc 20 µM, mean response (inhibition) of dose-response curve
[4] = Conc 50 µM, mean response (inhibition) of dose-response curve
[5] = Conc 100 µM, mean response (inhibition) of dose-response curve
[6] = Conc 200 µM, mean response (inhibition) of dose-response curve
[7] = dose-response curve of fragment hit
[8] = log of IC50 (µM), dose-response curve fit
[9] = Conc 10 µM, average response of dose-response curve
[10] = Conc 15 µM, average response of dose-response curve
[11] = Conc 20 µM, average response of dose-response curve
[12] = Conc 50 µM, average response of dose-response curve
[13] = Conc 100 µM, average response of dose-response curve
[14] = Conc 200 µM, average response of dose-response curve
[15] = dose-response retest of fragment hits

Row | Structure (SMILES) | Inhibition at 10 µM | Inhibition at 100 µM | Avg [1] | Avg [2] | Avg [3] | Avg [4] | Avg [5] | Avg [6] | IC50 [7] | LogIC50 (log10 of IC50 in µM) | Avg [9] | Avg [10] | Avg [11] | Avg [12] | Avg [13] | Avg [14] | IC50 [15] | LogIC50 (log of IC50 in µM) | further results
1 | Cc1cc(C(=O)CCl)c(C)n1-c1nccs1 [Z56979277] | 64% | 100% | 63.6 | 80.9 | 90.9 | 95.6 | 101.9 | 108.5 | – | – | – | – | – | – | – | – | – | – | –
2 | Cc1cc(C(=O)CCl)c(C)n1-c1ncn[nH]1 [Z57014347] | 35% | 100% | 35.1 | 51.1 | 60.8 | 75.5 | 101.2 | 107.2 | 15.4 µM | 1.188 | – | – | – | – | – | – | – | – | –
3 | CN(c1ccc(C(=O)CCl)cc1)S(C)(=O)=O [Z57982062] | 47% | 94% | 47.1 | 48.1 | 62 | 79.8 | 93.6 | 99.3 | 13.5 µM | 1.131 | – | – | – | – | – | – | – | – | –
4 | CCN(c1ccc(C(=O)CCl)cc1)S(C)(=O)=O [Z85932823] | 25% | 84% | 25.1 | 25.8 | 34.6 | 58.2 | 84.1 | 87.1 | 39.7 µM | 1.598 | – | – | – | – | – | – | – | – | –
5 | CC1C(=O)Nc2ccc(C(=O)CCl)cc21 (centres unmarked) [Z94598687] | 3% | 85% | 3 | 12.3 | 39.4 | 61.2 | 84.9 | 105.3 | 33.9 µM | 1.53 | – | – | – | – | – | – | – | – | –
6 | O=C(CCl)NC(=O)OCc1ccccc1 [Z108566700] | 22% | 100% | – | – | – | – | – | – | – | – | – | – | – | – | – | – | – | – | Avg (Conc 10 µM): 22.2; Avg (Conc 15 µM): 41.7; Avg (Conc 20 µM): 51.1; Avg (Conc 50 µM): 86.4; Avg (Conc 100 µM): 100.3; Avg (Conc 200 µM): 108.1; IC50 (dose-response curve fit): 19 µM; LogIC50 [8]: 1.279
7 | Cc1cc(C(=O)CCl)c(C)n1-c1ccccn1 [Z126674012] | 36% | 91% | – | – | – | – | – | – | – | – | – | – | – | – | – | – | – | – | Avg (Conc 10 µM): 35.8; Avg (Conc 15 µM): 45.3; Avg (Conc 20 µM): 61.2; Avg (Conc 50 µM): 80.4; Avg (Conc 100 µM): 91.2; Avg (Conc 200 µM): 99.9; IC50 (dose-response curve fit): 15.8 µM; LogIC50 [8]: 1.197
8 | O=C(CCl)N1CCN(Cc2cccs2)CC1 [Z166605372] | 3% | 70% | – | – | – | – | – | – | – | – | 3.4 | 11.2 | 27.4 | 53.6 | 69.5 | 93 | 47.5 µM | 1.677 | –
9 | Cc1ccccc1CN1CCN(C(=O)CCl)CC1 [Z208155076] | 18% | 85% | – | – | – | – | – | – | – | – | 18.2 | 5.8 | 36.6 | 64.8 | 84.6 | 98.1 | 35.8 µM | 1.554 | –
10 | O=C(CCl)c1ccc(N2CCCC2=O)cc1 [Z221603842] | 47% | 87% | – | – | – | – | – | – | – | – | 46.5 | 48.2 | 62.2 | 77.1 | 86.9 | 83.1 | 14 µM | 1.147 | –
11 | NS(=O)(=O)c1ccc(S)nc1 [Z235344787] | 6% | 100% | – | – | – | – | – | – | – | – | 5.7 | 20.7 | 38.6 | 106.4 | 110.1 | 111.3 | 22.3 µM | 1.348 | –
12 | O=C(NCCc1ccc(F)cc1)n1ccnc1 [Z235353843] | 30% | 96% | – | – | – | – | – | – | – | – | 29.9 | 15.5 | 42.1 | 82.2 | 95.9 | 102.1 | 27.6 µM | 1.441 | –
13 | O=C(c1ccc(S)nc1)N1CCCC1 [Z235362941] | 0% | 100% | – | – | – | – | – | – | – | – | 0.4 | 23.9 | 31.4 | 102.7 | 108.6 | 116.6 | 23.9 µM | 1.378 | –
14 | Cc1ccc(CNC(=O)n2ccnc2)cc1 [Z295462498] | 21% | 100% | 21 | 37.9 | 33.6 | 84.1 | 101.3 | 104 | 26.7 µM | 1.426 | – | – | – | – | – | – | – | – | –
15 | N#Cc1ccc(S)nc1 [Z367678594] | 16% | 100% | 16.1 | 29.5 | 30.5 | 107.9 | 110.6 | 113.2 | 25 µM | 1.398 | – | – | – | – | – | – | – | – | –
16 | O=C(CCl)N1CCc2[nH]c3ccccc3c2C1 [Z398556976] | 43% | 100% | 42.8 | 70.8 | 74.6 | 93.9 | 100.2 | 98.1 | 11 µM | 1.042 | – | – | – | – | – | – | – | – | –
17 | CSc1cc(C(=O)CCl)ccc1NC(C)=O [Z449369022] | – | 95% | 12.5 | 32 | 31 | 67.6 | 95.3 | 107.3 | 31 µM | 1.491 | – | – | – | – | – | – | – | – | –
18 | NC(=O)c1csc(C(=O)CCl)c1 [Z802671642] | 16% | 80% | 15.9 | 29.5 | 35.2 | 47.6 | 80.1 | 92.5 | 42.6 µM | 1.6293 | – | – | – | – | – | – | – | – | –
19 | NC(=O)CCc1ccc(C(=O)CCl)cc1 [Z1203664423] | 22% | 88% | – | – | – | – | – | – | – | – | – | – | – | – | – | – | – | – | Avg (Conc 10 µM): 21.6; Avg (Conc 15 µM): 41.7; Avg (Conc 20 µM): 49.5; Avg (Conc 50 µM): 69.9; Avg (Conc 100 µM): 88.3; Avg (Conc 200 µM): 103.3; IC50 (dose-response curve fit): 22 µM; LogIC50 [8]: 1.341
20 | O=C(NCC1CCCCC1O)c1cccnc1S (centres unmarked) [Z1252265470] | 0% | 100% | – | – | – | – | – | – | – | – | – | – | – | – | – | – | – | – | Avg (Conc 10 µM): -0.7; Avg (Conc 15 µM): 22.4; Avg (Conc 20 µM): 33.5; Avg (Conc 50 µM): 82; Avg (Conc 100 µM): 99.6; Avg (Conc 200 µM): 99.1; IC50 (dose-response curve fit): 25.5 µM; LogIC50 [8]: 1.406
